# Laboratory results from ChEMBL document CHEMBL1201862, “PubChem BioAssay data set” (2004).
# Calls of active or inactive are those of the source.
# How the values were obtained:
# [1] = biological target: T1, Heat shock factor protein 1 (Mus musculus, UniProt P38532); test: enhancement of HSF1-driven luciferase signal – cell-based, NIH3T3, luminescence, dose retest, confirmation (AID 435004); type: functional;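 note: stress induced by proteasome inhibitor MG132 added 30 min after compound; luciferase reporter driven by HSF1 response element in NIH3T3 cells; actives raise luminescence as potentiators of the MG132 stress response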
# T1 sequence (P38532 whole entry): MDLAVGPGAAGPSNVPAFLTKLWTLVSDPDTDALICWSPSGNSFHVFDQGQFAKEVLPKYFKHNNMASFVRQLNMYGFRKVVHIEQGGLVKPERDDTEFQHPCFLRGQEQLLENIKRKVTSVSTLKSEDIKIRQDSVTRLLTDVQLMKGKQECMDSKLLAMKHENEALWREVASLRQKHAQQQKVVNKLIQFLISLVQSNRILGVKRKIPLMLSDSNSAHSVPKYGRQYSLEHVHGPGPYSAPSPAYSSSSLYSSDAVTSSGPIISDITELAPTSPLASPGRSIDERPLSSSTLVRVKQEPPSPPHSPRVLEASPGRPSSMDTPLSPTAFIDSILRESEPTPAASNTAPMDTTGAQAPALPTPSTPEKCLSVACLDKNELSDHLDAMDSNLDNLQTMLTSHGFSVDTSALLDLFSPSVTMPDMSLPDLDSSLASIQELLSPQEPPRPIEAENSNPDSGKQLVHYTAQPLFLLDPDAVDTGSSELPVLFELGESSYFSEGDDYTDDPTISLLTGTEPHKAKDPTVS
# [2] = biological target: T2, Replicative DNA helicase DnaB (Mycobacterium tuberculosis, UniProt P9WMR3); test: DnaB intein splicing inhibitors, dose response, biochemical, cell-free fluorescence (AID 449749); type: functional
# T2 sequence (P9WMR3 whole entry): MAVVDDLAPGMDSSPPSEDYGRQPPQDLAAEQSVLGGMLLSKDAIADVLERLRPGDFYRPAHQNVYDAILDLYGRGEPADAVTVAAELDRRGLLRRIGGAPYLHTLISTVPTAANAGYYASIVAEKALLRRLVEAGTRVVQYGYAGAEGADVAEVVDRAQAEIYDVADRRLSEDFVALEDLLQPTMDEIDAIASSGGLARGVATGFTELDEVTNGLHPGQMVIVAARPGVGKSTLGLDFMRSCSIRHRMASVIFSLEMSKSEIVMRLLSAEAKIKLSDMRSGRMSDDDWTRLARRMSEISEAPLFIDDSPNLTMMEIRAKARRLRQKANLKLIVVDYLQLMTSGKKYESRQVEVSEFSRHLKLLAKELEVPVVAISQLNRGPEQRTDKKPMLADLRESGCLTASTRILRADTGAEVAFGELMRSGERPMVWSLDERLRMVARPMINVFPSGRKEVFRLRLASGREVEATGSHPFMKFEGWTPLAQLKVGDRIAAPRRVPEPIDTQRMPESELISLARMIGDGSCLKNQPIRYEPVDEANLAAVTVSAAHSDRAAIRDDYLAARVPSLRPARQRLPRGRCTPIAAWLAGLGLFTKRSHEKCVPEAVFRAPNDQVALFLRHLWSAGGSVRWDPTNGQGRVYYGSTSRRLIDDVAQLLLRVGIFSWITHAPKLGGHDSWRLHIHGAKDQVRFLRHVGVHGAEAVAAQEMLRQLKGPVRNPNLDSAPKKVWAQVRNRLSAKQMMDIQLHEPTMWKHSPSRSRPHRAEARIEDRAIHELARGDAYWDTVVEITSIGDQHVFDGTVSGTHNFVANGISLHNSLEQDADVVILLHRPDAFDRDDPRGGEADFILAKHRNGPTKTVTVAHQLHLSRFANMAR
# Protein RecA = biological target: T3, Protein RecA (Mycobacterium tuberculosis, UniProt P9WHJ3); test: Fluorescence Cell-Free Homogeneous Dose Retest to Identify Inhibitors of RecA-Intein Splicing Activity. [Related pubchem assays (depositor defined):AID2097, AID2223, AID489010, AID492950]; type: functional
# T3 sequence (P9WHJ3 whole entry): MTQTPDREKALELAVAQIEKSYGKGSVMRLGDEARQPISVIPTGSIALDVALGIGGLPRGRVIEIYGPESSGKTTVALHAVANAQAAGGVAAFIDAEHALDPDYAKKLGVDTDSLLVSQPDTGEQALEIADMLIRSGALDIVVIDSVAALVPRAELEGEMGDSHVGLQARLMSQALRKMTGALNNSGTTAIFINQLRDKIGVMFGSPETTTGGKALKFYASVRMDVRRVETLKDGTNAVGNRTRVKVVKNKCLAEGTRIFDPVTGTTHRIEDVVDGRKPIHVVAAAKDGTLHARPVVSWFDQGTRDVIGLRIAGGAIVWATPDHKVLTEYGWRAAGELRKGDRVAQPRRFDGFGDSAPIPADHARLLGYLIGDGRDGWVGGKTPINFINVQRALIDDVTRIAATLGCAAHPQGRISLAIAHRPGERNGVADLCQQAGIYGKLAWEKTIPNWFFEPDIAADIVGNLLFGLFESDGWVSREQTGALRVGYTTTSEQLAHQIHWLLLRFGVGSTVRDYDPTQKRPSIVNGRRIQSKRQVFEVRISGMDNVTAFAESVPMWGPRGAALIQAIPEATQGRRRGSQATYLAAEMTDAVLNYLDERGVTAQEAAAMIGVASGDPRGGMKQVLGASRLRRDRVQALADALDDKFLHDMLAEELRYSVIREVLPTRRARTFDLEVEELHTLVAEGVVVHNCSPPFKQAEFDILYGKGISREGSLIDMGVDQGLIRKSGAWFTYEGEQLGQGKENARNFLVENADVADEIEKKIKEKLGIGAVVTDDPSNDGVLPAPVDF
# [3] = biological target: T1, Heat shock factor protein 1; test: decrease of HSF1-responsive luciferase luminescence – cell-based, NIH3T3, dose retest, confirmation (AID 2382); type: functional;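 note: NIH3T3 fibroblasts with HSF1-driven luciferase reporter stressed by proteasome inhibitor MG132; luminescence from HSF1-driven luciferase expression after 8 hours of MG132 stress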
# Cytochrome P450 2D6 = Cytochrome P450 2D6 (Homo sapiens, UniProt P10635);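 note: CYP2D6 member of a cytochrome P450 panel assay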
# Cytochrome P450 2D6, sequence (P10635 whole entry): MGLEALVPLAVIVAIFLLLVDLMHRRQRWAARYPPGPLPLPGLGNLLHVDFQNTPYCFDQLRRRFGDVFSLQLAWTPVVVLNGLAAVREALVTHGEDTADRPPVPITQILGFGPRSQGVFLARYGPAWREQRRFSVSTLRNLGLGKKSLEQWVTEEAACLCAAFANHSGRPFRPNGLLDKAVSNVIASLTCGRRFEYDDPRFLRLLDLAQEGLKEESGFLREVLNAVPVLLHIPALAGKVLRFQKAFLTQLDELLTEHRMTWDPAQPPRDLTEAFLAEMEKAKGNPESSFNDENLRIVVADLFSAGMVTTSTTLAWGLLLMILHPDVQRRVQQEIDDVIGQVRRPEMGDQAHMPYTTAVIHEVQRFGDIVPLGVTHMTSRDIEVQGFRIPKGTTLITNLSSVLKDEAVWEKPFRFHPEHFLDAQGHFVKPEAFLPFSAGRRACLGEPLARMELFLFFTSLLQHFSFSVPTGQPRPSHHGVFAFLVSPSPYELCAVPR
# Cytochrome P450 3A4 = Cytochrome P450 3A4 (Homo sapiens, UniProt P08684);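 note: CYP3A4 tested as one member of a cytochrome P450 panel screen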
# Cytochrome P450 3A4, sequence (P08684 whole entry): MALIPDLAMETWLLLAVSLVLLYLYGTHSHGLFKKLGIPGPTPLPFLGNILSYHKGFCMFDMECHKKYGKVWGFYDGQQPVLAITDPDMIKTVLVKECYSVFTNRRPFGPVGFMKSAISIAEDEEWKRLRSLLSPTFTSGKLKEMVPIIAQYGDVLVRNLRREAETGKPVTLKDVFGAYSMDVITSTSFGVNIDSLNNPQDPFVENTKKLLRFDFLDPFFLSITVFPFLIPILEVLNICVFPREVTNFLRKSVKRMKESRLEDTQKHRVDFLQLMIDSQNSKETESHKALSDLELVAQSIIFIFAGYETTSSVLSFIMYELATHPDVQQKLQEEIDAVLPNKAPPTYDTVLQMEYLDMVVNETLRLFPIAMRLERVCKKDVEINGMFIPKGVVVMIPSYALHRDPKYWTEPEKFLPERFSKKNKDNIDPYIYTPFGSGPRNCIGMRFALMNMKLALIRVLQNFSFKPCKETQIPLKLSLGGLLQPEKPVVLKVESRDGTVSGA
# Cytochrome P450 2C9 = Cytochrome P450 2C9 (Homo sapiens, UniProt P11712)
# Cytochrome P450 2C9, sequence (P11712 whole entry): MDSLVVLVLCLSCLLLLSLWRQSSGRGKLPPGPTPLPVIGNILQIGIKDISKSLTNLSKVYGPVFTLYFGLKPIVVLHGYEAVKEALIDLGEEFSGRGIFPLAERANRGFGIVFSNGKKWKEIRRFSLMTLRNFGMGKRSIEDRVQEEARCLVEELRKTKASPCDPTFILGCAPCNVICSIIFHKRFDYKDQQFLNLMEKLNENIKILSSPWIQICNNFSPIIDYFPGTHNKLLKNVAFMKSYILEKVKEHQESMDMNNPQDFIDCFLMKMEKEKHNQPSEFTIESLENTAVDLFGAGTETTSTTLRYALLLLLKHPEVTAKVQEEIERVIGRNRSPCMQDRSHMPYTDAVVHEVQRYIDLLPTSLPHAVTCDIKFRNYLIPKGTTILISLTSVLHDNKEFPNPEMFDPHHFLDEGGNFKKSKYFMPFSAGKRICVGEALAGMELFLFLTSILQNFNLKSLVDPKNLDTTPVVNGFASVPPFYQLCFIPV
# Streptokinase A = biological target: T4, Streptokinase A (Streptococcus pyogenes serotype M1, UniProt P10520); test: viability-normalized secreted streptokinase activity reduction – plasminogen activation absorbance, OD405, dose response (AID 1914); type: functional, Streptococcus pyogenes M1 GAS;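 note: secreted streptokinase activity via plasminogen activation per viability signal from cell pellet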
# T4 sequence (P10520 whole entry): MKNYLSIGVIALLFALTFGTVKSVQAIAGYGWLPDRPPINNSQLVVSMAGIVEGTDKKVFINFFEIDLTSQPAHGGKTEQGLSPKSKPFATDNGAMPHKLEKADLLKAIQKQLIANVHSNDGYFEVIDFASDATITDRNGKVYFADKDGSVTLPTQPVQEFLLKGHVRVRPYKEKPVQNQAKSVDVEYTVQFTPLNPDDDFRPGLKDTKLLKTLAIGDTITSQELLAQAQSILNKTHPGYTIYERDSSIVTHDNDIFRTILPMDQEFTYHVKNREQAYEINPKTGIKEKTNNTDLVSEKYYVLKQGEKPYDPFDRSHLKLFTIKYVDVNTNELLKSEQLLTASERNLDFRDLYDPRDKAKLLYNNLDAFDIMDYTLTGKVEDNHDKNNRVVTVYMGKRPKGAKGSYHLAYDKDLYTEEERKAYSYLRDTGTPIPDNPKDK
# [4] = Luminescence Cell-Based Dose Response HTS to Identify Inhibitors of 5'UTR Stem-Loop Driven Prion Protein mRNA Translation in H4 Neuroglioblastoma Cells. [Related pubchem assays: 1827 (Project Summary), 1813 (Primary HTS)]; type: functional
# [5] = alpha-synuclein stem-loop luciferase translation blockers – H4 neuroglioma cells, luminescence, confirmation (AID 1988); type: functional, cell-based
# INS1 = test: INS-1E survival protection against cytokine death – cell-based, luminescence, retest, dose response (AID 449756); type: functional; conditions: Rattus norvegicus;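 note: cell death triggered by IL-1 beta plus TNF-alpha plus IFN-gamma mixture; protective hits raise ATP signal compared with cytokine alone wells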
# Cytochrome P450 2C19 = Cytochrome P450 2C19 (Homo sapiens, UniProt P33261); test: Cytochrome panel assay with activity outcomes. Panel member name: p450-cyp2c19 Compounds with AC50 equal or less than 10 uM are considered active; type: functional; conditions: read-out: AC50
# Cytochrome P450 2C19, sequence (P33261 whole entry): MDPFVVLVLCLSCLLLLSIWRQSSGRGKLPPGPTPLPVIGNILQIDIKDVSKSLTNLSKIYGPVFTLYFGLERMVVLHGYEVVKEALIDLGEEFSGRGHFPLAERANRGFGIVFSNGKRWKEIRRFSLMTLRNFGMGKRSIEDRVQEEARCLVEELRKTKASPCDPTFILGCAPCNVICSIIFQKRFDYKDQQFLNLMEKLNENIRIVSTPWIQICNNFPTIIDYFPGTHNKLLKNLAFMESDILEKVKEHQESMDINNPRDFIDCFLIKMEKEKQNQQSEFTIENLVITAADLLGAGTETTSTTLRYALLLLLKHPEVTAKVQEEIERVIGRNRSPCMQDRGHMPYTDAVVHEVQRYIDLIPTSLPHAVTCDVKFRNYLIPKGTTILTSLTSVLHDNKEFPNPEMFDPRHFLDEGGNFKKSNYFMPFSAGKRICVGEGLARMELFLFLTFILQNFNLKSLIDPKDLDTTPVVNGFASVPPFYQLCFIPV
structure (smiles),measurement,setting,value
CCOC(=O)c1cnc2ccc(C)cc2c1Sc1ccc(F)cc1,EC50,[1],11.2 µM (active)
same,AC50,[2],5.76 µM (active)
same,EC50,Protein RecA,2.95 µM (active)
Cc1ccc2nc(N3CCN(Cc4nnnn4Cc4ccccc4)CC3)c(C#N)cc2c1,EC50,[3],> 195 µM (not active)
Cc1ccc(C(=O)NCCn2cc(SCC(=O)N3CCOCC3)c3ccccc32)cc1,EC50,[3],> 195 µM (not active)
COc1ccc(C(=O)N2CCC3(CCCN(Cc4ccccc4OC)C3)CC2)cc1,AC50,Cytochrome P450 2D6,12.6 µM (inconclusive)
same,AC50,Cytochrome P450 3A4,15.8 µM (inconclusive)
O=C(NC1CCCC1)C(c1ccc(F)cc1)N(Cc1ccc(F)cc1)C(=O)c1cc[nH]n1 (centres undefined),AC50,Cytochrome P450 2D6,25.1 µM (inconclusive)
same,AC50,Cytochrome P450 2C9,39.8 µM (inconclusive)
COc1ccc(CSCCNC(=S)Nc2ccccc2)cc1Cl,EC50,Streptokinase A,> 150 µM (not active)
Cc1nnc2nc(SCC(=O)NCC3CCCO3)n(-c3ccc(Br)cc3)c(N)c1-2 (centres undefined),AC50,Cytochrome P450 2D6,10 µM (inconclusive)
same,AC50,Cytochrome P450 2C9,14.1 µM (inconclusive)
Cc1ccc(S(=O)(=O)c2cc(C#N)c(O)nc2N)cc1,AC50,Cytochrome P450 2D6,39.8 µM (inconclusive)
same,AC50,Cytochrome P450 3A4,25.1 µM (inconclusive)
CCc1cc2c3c(c1)C1(C(=O)N3C(C)(C)C=C2C)C(C#N)=C(N)Oc2nc(O)nc(O)c21 (centres undefined),AC50,[2],11 µM (active)
same,EC50,Protein RecA,2.65 µM (active)
CS(=O)(=O)C1=NN2C(=N)/C(=C\c3ccc(OC(=O)c4ccco4)cc3)C(=O)N=C2S1,AC50,[2],> 380 µM (inactive)
same,EC50,Protein RecA,16.8 µM (active)
COc1ccc(C(=O)ON=C(N)c2ccccc2)c(OC)c1,EC50,[4],> 120 µM (not active)
same,EC50,[5],5.93 µM (active)
Cc1ccccc1OCCNC(=O)c1ccccc1Sc1ccccc1C#N,AC50,Cytochrome P450 2D6,25.1 µM (inconclusive)
same,AC50,Cytochrome P450 2C9,28.2 µM (inconclusive)
Cc1ccc(N2C(=O)C(Cl)=C(NCc3ccccc3)C2=O)c(C)c1,AC50,Cytochrome P450 2D6,22.4 µM (inconclusive)
CC(C)(CC(=O)N1CCN(c2ccc(Cl)cc2)CC1)CC1=NS(=O)(=O)c2ccccc2N1,AC50,Cytochrome P450 2D6,3.16 µM (inconclusive)
CCCCCC1=C2CNC(CCC)(C(=O)OC)C=C2C(C)C1=O (centres undefined),AC50,Cytochrome P450 2D6,12.6 µM (inconclusive)
O=C(NCc1cccnc1)c1cc(-c2ccco2)on1,AC50,INS1,1.62 µM (active)
CSc1c(-c2ccccc2)nc2ccccc2c1C(=O)O,AC50,Cytochrome P450 2C19,10 µM (inconclusive)
same,AC50,Cytochrome P450 2D6,3.16 µM (inconclusive)
CC(C)CCN(C(=O)CNC(=O)c1cccs1)C(C(=O)NC1CCCCC1)c1cccnc1 (centres undefined),EC50,[3],> 195 µM (not active)
CCOc1cc(C2C(C#N)=C(N)Oc3[nH]nc(C)c32)ccc1OCCN1CCOCC1 (centres undefined),AC50,[2],50.6 µM (active)
same,EC50,Protein RecA,4.45 µM (active)
O=C1NC(=S)S/C1=C\c1nc2ccccc2[nH]1,AC50,[2],> 380 µM (inactive)
same,EC50,Protein RecA,> 120 µM (inactive)
CCc1cc(C(=O)NCC(C)(C)N2CCOCC2)sc1C,EC50,[3],> 195 µM (not active)
CNC(=O)c1[nH]cnc1C(=O)Nc1ccccc1C,EC50,[3],> 195 µM (not active)
O=C(Nc1nncs1)c1ccc(F)c(S(=O)(=O)N2CCCCC2)c1,EC50,[3],39.5 µM (active)
FC(F)(F)c1ccccc1-c1cc(NCc2cccnc2)ncn1,AC50,Cytochrome P450 2D6,25.1 µM (inconclusive)
O=C(Nc1cccc(Cl)c1)c1ccc(S(=O)(=O)NCC2CCCO2)cc1 (centres undefined),EC50,[3],> 195 µM (not active)
COCCNc1nc(-c2ccccc2OC)nc2ccccc12,AC50,Cytochrome P450 2D6,25.1 µM (inconclusive)
same,AC50,Cytochrome P450 3A4,20 µM (inconclusive)
COc1ccc(S(=O)(=O)N2CCCC2)cc1C(C)C,EC50,[3],> 195 µM (not active)
CCc1ccc(-c2cc(C(F)(F)F)n3nc(C(=O)Nc4cnn(Cc5ccc(C)cc5)c4)cc3n2)s1,AC50,INS1,3.63 µM (active)
c1ccc2c(c1)ncn2-c1ncnc2sc3c(c12)CCCC3,AC50,Cytochrome P450 2D6,0.00501 µM (inconclusive)
same,AC50,Cytochrome P450 3A4,14.1 µM (inconclusive)
same,AC50,Cytochrome P450 2C9,20 µM (inconclusive)
CCOC(=O)c1c(N=C(S)N2CCOCC2)sc2c1CCN(C(=O)OCC)C2,AC50,[2],5.25 µM (active)
same,EC50,Protein RecA,20.1 µM (active)
O=C(O)C1CCC(=O)N(C2CCCCC2)C1c1ccccc1Cl (centres undefined),EC50,[3],> 195 µM (not active)
COc1cccc(N/C([S-])=C(/C(=O)c2ccc(C)c([N+](=O)[O-])c2)[n+]2ccccc2)c1,AC50,[2],13.3 µM (active)
same,EC50,Protein RecA,9.74 µM (active)
CCOC(=O)c1cc2occc2n1CC(=O)N1CCCc2ccccc21,EC50,[3],> 195 µM (not active)
Cc1cccc(N2CCN(Cc3nc(-c4ccccc4Cl)oc3C)CC2)n1,EC50,[3],> 195 µM (not active)
NCCCc1ccc2oc3ccccc3c2c1,AC50,Cytochrome P450 2C19,7.94 µM (inconclusive)
same,AC50,Cytochrome P450 2D6,2.51 µM (inconclusive)
C[C@H](CO)N1C[C@H](C)[C@@H](CN(C)C(=O)NC2CCCCC2)Oc2c(NC(=O)Nc3ccc(C(F)(F)F)cc3)cccc2C1=O,AC50,INS1,27.7 µM (active)
Oc1ccc(/C(Cc2ccc3ccccc3n2)=N\Nc2ccccc2)c(O)c1,AC50,[2],78.3 µM (active)
same,EC50,Protein RecA,13.6 µM (active)
CC1Cc2ccccc2N1C(=O)CO/N=C/c1ccc(OC(F)F)cc1 (centres undefined),EC50,[3],> 195 µM (not active)
O=C(N/N=C/c1cccnc1)c1ccccc1NS(=O)(=O)c1cccs1,AC50,INS1,> 260 µM (inactive)
